{
  "source": "patent US6514912B1",
  "about": "“Use of benzo[C]quinolizine derivatives as plant growth regulators” (Applied Research Systems ARS Holding N.V., priority 1998, dated 2003)",
  "system": "Arabidopsis Thaliana Columbia (Col 0) seeds",
  "test": "Germination of Arabidopsis seeds in the dark, hypocotyledon length",
  "assay_type": "in vivo",
  "details": "10 days in the dark",
  "procedure": "Batches of 25 seeds of Arabidopsis Thaliana Columbia (Col 0) were made to germinate in a suitable culture medium consisting of 0.5 ×MS at pH 5.7, containing 1% sucrose, 1×Vitamin B5 Gamborg, and 0.8% phyto-agar in the presence of the 1,2,5,6-tetrahydro-(11H)benzo[c]quinolizin-3-one inhibitor at the concentrations of 0, 0.01, 0.1, 1 and 10 micromolar. After two hours of treatment in light, the seeds were covered with three layers of aluminium foil and kept at 21° C. in a growth chamber. After 10 days in the dark, the length of the hypocotyledons was measured. […] A reduction of 50% in the hypocotyledons as compared to the controls was found for the seeds treated with a concentration of 0.1 micromolar of inhibitor.",
  "data": [
    {"smiles": "O=C1C=C2CCc3ccccc3N2CC1", "note": "[1,2,5,6-tetrahydro-(11H)benzo[c]quinolizin-3-one]", "values": [
      {"measurement": "length of the hypocotyledons versus inhibitor concentration", "setting": "0.01, 0.1, 1 and 10 micromolar, untreated approximately 15-16 mm", "result": "progressively shorter as the concentration of inhibitor used was increased"},
      {"measurement": "reduction in the hypocotyledons as compared to the controls", "setting": "0.1 micromolar inhibitor in culture medium, 21° C., batches of 25 seeds", "result": 50, "unit": "%"}
    ]}
  ]
}
